The record followed here is article PMC8596838, “Xylose‐Configured Cyclophellitols as Selective Inhibitors for Glucocerebrosidase” (Chembiochem, 2021).

Like-named read-outs stand apart in the source and are kept apart here. Where only a bound is given, the exact number is not on record here.

For experiment [1], the target named is T1, GBA3 (Homo sapiens, UniProt Q9H227).
T1 construct: expressed in transfected cells; host or cells: HEK293T (GBA/GBA2 KO background for the fluorogenic assay; endogenous-GBA background with GBA2 and GBA3 overexpressed for ABPP and intact-cell assays)
T1 sequence (Q9H227 1-469): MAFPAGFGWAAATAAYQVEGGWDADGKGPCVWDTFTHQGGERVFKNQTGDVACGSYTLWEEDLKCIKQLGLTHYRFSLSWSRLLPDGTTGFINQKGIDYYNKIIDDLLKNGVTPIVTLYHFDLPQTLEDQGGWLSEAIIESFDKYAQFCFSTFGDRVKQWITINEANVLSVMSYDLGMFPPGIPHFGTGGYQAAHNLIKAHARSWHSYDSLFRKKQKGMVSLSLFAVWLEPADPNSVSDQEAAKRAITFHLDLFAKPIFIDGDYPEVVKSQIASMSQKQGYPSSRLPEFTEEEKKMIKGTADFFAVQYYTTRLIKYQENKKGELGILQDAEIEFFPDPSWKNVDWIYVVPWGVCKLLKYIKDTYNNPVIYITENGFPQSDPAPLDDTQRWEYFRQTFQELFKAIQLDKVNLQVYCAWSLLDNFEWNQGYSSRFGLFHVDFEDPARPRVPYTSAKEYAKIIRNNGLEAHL
Nature of the experiment: Inhibition in intact HEK293T cells (24 h), read out by cABPP with ABP 10, GBA3. The experiment is classed as cell-based. The note with it: for IC50: 24 h treatment, cABPP quantification, n=3; for GBA3/GBA ratio, intact cells: IC50 ratio, 24 h. The text has this:
We next examined the activity of 1 and 2 towards the three human β‐D‐glucosidase in intact HEK293T cells. […] It is noted that the GBA‐selectivity of both compounds is much improved in intact cells than in the in vitro system (Figure 2 and Table 1). This is especially true for compound 1, where an impressive 4‐logs of selectivity window is observed.
Figure 5 Inhibitory effect of β‐D‐xylo‐configured cyclophellitol 1 and cyclophellitol aziridine 2 on β‐glucosidases in intact HEK293T cells expressing GBA, GBA2 and GBA3. (A) Representative gel images of cABPP where cells were treated for 24 h with indicated inhibitor. Lysates were then prepared and labeled with fluorescent ABP 10. Fluorescently labeled proteins were visualized after SDS‐PAGE (1 set from n=3 replicates). (B) IC50 curves determined by cABPP labeling results. (C) Apparent IC50 values towards β‐glucosidases in intact HEK293T cells producing GBA, GBA2 and GBA3 were determined by the fluorescence quantification based on cABPP SDS‐PAGE results.
(§1) ABP labeling procedure: Glycosidases were labeled with excess fluorescent ABPs at optimum conditions. ABP labeling was performed at 37 °C for 30 min for all materials (if not otherwise stated), in a total sample volume of 20–40 μL and 0.5–1 % DMSO concentration. GBA was labeled with 200 nM ABP 9 (pH 5.2, 0.1 % (v/v) Triton‐100, 0.2 % (w/v) sodium taurocholate), or labeled together with GBA2 using 200 nM β‐D‐glucose‐configured aziridine ABP 10 at pH 5.8, or labeling together with GBA2 and GBA3 using 200 nM β‐D‐glucose‐configured aziridine ABP 10 at pH 6.0. After ABP incubation, proteins were denatured by boiling the samples with 5× Laemmli buffer (50 % (v/v) 1 M Tris‐HCl, pH 6.8, 50 % (v/v) 100 % glycerol, 10 % (w/v) DTT, 10 % (w/v) SDS, 0.01 % (w/v) bromophenol blue) for 5 min at 98 °C, and separated by electrophoresis on 10 % (w/v) SDS‐PAGE gels running continuously at 90 V. Wet slab‐gels were scanned on fluorescence using the Typhoon FLA 9500 (GE Healthcare) at λEX 473 nm and λEM≥510 nm for green fluorescent ABP 8; and at λEX 635 nm and λEM≥665 nm for ABP 6, 9 and 10. ABP‐emitted fluorescence was quantified using ImageQuant software (GE Healthcare, Chicago, IL, USA) and curve‐fitted using Prism 8.0 (GraphPad Software). After fluorescence scanning, SDS‐PAGE gels were stained for total protein with Coomassie G250 and scanned on a ChemiDoc MP imager (Bio‐Rad, Hercules, CA, USA).[25]
Assessment of inhibitor activity in cultured cells: Confluent HEK293T stably expressing human GBA and GBA2 GBA3 overexpressing were cultured in 24‐well plates in triplicates with(out) inhibitors for 24 h at 37 °C with 7 % CO2. […]

Experiment [2] concerns the target GBA2 (Danio rerio, UniProt E7F5W0). The experiment in a line: In vivo inhibition in zebrafish larvae, read out by cABPP with ABP 10, GBA2. Also noted: species or system zebrafish (Danio rerio).
Source text: We further investigated the affinity of 1 and 2 towards β‐D‐glucosidases in living animals using zebrafish (Danio rerio) embryos, which express both GBA and GBA2. Following exposure for 5 days, fish larvae were sacrificed and lysed, and cABPP with ABP 10 was used to detect residual active β‐D‐glucosidase molecules in the lysates and for IC50 determination. […] Aziridine compound 2 is also selective against GBA over GBA2, albeit with a narrower selectivity window (Figure 6A–C). We noted that the apparent IC50 in zebrafish embryo is much […] than the observed in intact cells despite the longer incubation time, which could be a result of poorer bioavailability of the cyclophellitol‐related structures in whole animal, as noted earlier by us.[36]
Figure 6 In vivo inhibitory effect of β‐D‐xylo‐configured compounds on β‐glucosidases in zebrafish (Danio rerio) larvae. (A) Larvae were exposed to 5 dpf with the indicated inhibitor 1 or 2 in the medium. Larvae were lysed and incubated with fluorescent ABP 10. Fluorescently labeled proteins were visualized after SDS‐PAGE, only GBA and GBA2 were assessed in zebrafish larvae model. (B) Apparent IC50 values towards β‐glucosidases (GBA and GBA2) were determined by the fluorescence quantification based on cABPP results. (C) In vivo inhibition curves. (D) GlcSph levels in zebrafish larvae were determined as described in experiment section, n=2 replicates.
as §1
Inhibition of enzymes in zebrafish larvae: Experiments were performed with 5 dpf larvae. For inhibitor treatment, a single fertilized embryo was seeded in a well of a 96‐wells plate, and exposed to 200 μL corresponding inhibitor for 115 hours at 28.5 °C. Per condition, n=24 embryos were used. At 115 hours (5 dpf), larvae were collected, rinsed three times with egg water, fully aspirated, snap‐frozen in liquid nitrogen and stored at −80 °C until homogenization in 96 μL 25 mM potassium phosphate buffer per 24 individuals. Lysis was conducted by sonication with a Polytron PT 1300D sonicator (Kinematica, Luzern, Switzerland) on ice at 20 % power for three seconds, and repeated three times. […]

Setting [3] is: IC50 ratio, zebrafish larvae 5 dpf.

Sequence of GBA2 (E7F5W0 entry or part of it): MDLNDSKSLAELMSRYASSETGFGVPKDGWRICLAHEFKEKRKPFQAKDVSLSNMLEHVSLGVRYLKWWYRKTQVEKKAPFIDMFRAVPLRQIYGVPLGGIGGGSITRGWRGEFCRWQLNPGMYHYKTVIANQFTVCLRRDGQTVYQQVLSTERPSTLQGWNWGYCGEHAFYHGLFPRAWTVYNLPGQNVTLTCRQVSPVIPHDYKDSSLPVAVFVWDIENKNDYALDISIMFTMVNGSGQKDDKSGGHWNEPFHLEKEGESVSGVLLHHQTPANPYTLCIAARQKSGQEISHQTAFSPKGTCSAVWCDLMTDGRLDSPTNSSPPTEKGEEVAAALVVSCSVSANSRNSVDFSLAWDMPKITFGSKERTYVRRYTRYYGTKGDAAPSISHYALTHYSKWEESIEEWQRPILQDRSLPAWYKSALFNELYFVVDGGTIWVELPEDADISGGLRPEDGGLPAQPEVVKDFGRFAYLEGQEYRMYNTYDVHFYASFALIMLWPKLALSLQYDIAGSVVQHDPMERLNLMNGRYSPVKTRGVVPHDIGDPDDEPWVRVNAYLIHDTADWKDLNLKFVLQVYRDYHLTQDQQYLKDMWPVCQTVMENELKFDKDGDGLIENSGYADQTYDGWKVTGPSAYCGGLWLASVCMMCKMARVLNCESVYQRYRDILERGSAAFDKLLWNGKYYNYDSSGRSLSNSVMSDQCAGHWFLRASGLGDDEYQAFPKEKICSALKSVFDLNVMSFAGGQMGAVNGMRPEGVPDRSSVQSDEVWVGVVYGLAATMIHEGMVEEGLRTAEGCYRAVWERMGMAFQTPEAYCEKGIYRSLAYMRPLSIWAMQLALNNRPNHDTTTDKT

For `O[C@@H]1[C@@H](O)[C@H](O)C[C@H]2O[C@@H]12` [compound 1, xylo‐cyclophellitol], in experiment [1], the IC50 was greater than 100 µM and the “GBA3/GBA ratio, intact cells” value was greater than 10000. In addition, in experiment [2] (150 μM, exposure for 5 days), the “effect on ABP labelling of GBA2 in zebrafish at 150 μM” value was “without targeting GBA2”. Moreover, the “GBA2/GBA ratio, zebrafish larvae” value in experiment [2] (setting [3]) is greater than 50. For the same compound, the IC50 in experiment [2] (larvae exposed to 5 dpf, inhibitor in the medium, cABPP quantification; read-out: Zebrafish larvae IC50 GBA2) was greater than 150 µM.

Consider `O[C@@H]1[C@@H](O)[C@H](O)C[C@H]2N[C@@H]12` [compound 2, β‐D‐xylo‐Cyclophellitol aziridine], for which, in experiment [1], the IC50 was 48.9 ± 12.7 µM and the “GBA3/GBA ratio, intact cells” value was determined as 1159. Further, the “GBA2/GBA ratio, zebrafish larvae” value in experiment [2] (setting [3]) was 21. For the same compound, in experiment [2] (read-out: Zebrafish larvae IC50 GBA2; larvae exposed to 5 dpf, inhibitor in the medium, cABPP quantification), the concentration for half-maximal inhibition (IC50) was found to be 150 µM.
